One assay deals with CD8 T cells and NK cells. In words: Flow cytometry of PBMC: CD69 on CD8 T cells and NK cells. Format: in vivo, Human. On the procedure: PBMCs were studied from a set of six patients who responded to therapy and 6 patients who progressed with treatment (Table 6).
PBMC were thawed and the activation of natural killer cell (NK) and T cells was assessed using flow cytometry as detailed in the Supplemental Methods (see also Ref 19).
All mAbs were from BD Biosciences (San Diego, Calif.) and R&D systems (Minneapolis, Minn., USA).
Details of the cell preparation and staining have been previously published (Stevenson J P, Kindler H L, Papasavvas E, et al. Immunological effects of anti-transforming growth factor-beta (TGF-beta) antibody GC1008 in cancer patients with malignant pleural mesothelioma (MPM). Oncoimmunology 2013; 8:e26218). Analysis was done by collecting 100,000 live lymphocytes (defined by size and granularity in FSC and SSC). Dead cells were excluded by manual gating in FSC/SSC. Detection thresholds were set according to isotype-matched negative controls. Results were expressed as Mean Fluorescent Intensity (MFI) and percent (%) of lymphocytes, NK cells (Lin3-CD56dimCD16+), CD3+CD4+ or CD3+CD8+ T cells. Data analysis was performed using FloJo software (Tree Star, San Carlos, Calif.).
Data were described as medians, 25th and 75th percentiles. Comparisons between responders (n=6) and non-responders (n=6) at each time point were done using Wilcoxon Kruskal-Wallis tests (Rank Sums). Differences between time points for all patients (n=12) were tested using Wilcoxon Signed-Rank or paired t-tests depending on data distribution, while differences between time points in responders (n=6) and in non-responders (n=6) were tested using Wilcoxon Signed-Rank. p values that were less than 0.05 were considered statistically significant. All statistics used JMP Pro11®.
(In general: In flow cytometry, cells or beads pass a laser one at a time.)

Assay [1] relates to purified mesothelin and extracts from allogeneic mesothelioma cell lines. In words: Immunoblotting with patient serum for induced anti-tumor antibodies. Format: in vivo, Human. On the set-up: key to Antibody Response: 0 = no change; 1 = marginal changes; 2 = significant changes. Here is the method: Enzyme-linked immunosorbent assays (ELISAs) were used to measure IFN-α2b levels (PBL Biomedical Labs; Piscataway, N.J.), as well as serum mesothelin-related protein (SMRP) levels (Fujirebio, Inc., Malvern, Pa.). Neutralizing adenovirus antibody titers (Nabs) were assessed as previously described (5). To detect induced humoral responses against tumor antigens, we performed immunoblotting against purified mesothelin and extracts from allogeneic mesothelioma cell lines using pre- and post-treatment serum as previously described (4-6). See Supplemental Methods for details.
To detect induced humoral responses against tumor antigens, we performed immunoblotting against purified mesothelin and extracts from allogeneic mesothelioma cell lines. Purified mesothelin was purchased from Raybiotech (Norcross, Ga.). Cell lines were derived from patient pleural fluid samples from previous clinical trials and were grown in culture as previously described (Sterman D H, Reico A, Haas A R, et al. A phase I trial of repeated Intrapleural adenoviral-mediated interferon-beta gene transfer for mesothelioma and metastatic pleural effusion. Mol Ther 2010; 18: 852-60). Extracts from cells or purified proteins were prepared and immunoblotted with patient serum (diluted at 1:1500) from time points before treatment, and 6 weeks after treatment as previously described (Sterman et al., 2010). Multiple exposures were obtained and comparisons were made on the exposures in which the major bands detected on pre-treatment blots were of equal intensity in post-treatment blots.
The blots were semi-quantitatively scored as follows: 0=no change in any bands; 1=minimal changes (i.e. increased intensity in one or two bands); 2=clear increases in >2 bands or appearance of new bands.
Background: Immunoblotting shows a protein as a band on a membrane.

The subject of assay [2] is serum mesothelin-related protein (SMRP). In words: ELISA of serum mesothelin-related protein (SMRP). It is filed as in vivo, Human. As to conditions: compared to baseline. The text has this:
See Supplemental Methods for details.
For orientation: An ELISA detects its analyte on a solid surface through an enzyme-linked reagent.

Assay [3] concerns MPM. As to conditions: published trial, Pem re-treat with pem; cited from earlier work.
Assay [4] concerns MPM. In words: Recent published trials of chemotherapy in MPM (historical comparison). It is filed as in vivo. As to conditions: average of three published trials of pemetrexed re-treatment (103 patients).
[5] abbreviates: post-treatment serum, 39 patients analysed.

Marks after values point to notes of the source that are not given here.

Turning to nadofaragene firadenovec [Ad.IFN], the “CD8 T Cells: % Positive for CD69” value is given as 26.6 (IQR: 23.2- % with CD8 T cells and NK cells (Good Responders, D 2, median); 16.6 (IQR: 11.5- % with CD8 T cells and NK cells (Good Responders, D 15, median); 22.1 (IQR: 9.9- % with CD8 T cells and NK cells (Poor Responders, D 2, median); 14.9 (IQR: 10.5- % in the assay on CD8 T cells and NK cells (Poor Responders, D 15, median). In addition, the “NK Cells: % Positive for CD69” value with CD8 T cells and NK cells (Good Responders, D 2, median, p = 0.03 vs Baseline) is on record as 66.6* (IQR: 42.1- %; in the assay on CD8 T cells and NK cells (Good Responders, D 15, median), 20.9 (IQR: 5.8- %; with CD8 T cells and NK cells (Poor Responders, D 2, median), 33.3 (IQR: 22.8- %; with CD8 T cells and NK cells (Poor Responders, D 15, median) it was 22.7 (IQR: 13.2- %. The “Antibody Response” value came to 2 in assay [1] (patient 402); 0 in assay [1] (patient 404); 2 in assay [1] (patient 405); 1 in assay [1] (patient 406); 0 in assay [1] (patient 411); 0 in assay [1] (patient 416). Also, the “Antibody Response” value is given as 2 in assay [1] (patient 417); 2 in assay [1] (patient 421); 2 in assay [1] (patient 422); 1 in assay [1] (patient 423); 1 in assay [1] (patient 425); 1 in assay [1] (patient 429). Also, in assay [1] (setting [5]), the “patients with clear increases in anti-tumor bands” value is reported as 14 patients. In assay [1] (setting [5]), the “patients with minimal changes in tumor bands” value was 14 patients. Moreover, the “patients with no changes in number or intensity of anti-tumor immunoblot bands” value in assay [1] (setting [5]) turned out to be 11 patients. In assay [2] (at some time point), the “patients with a greater than 20% decrease in SMRP level” value is on record as 15 of the 27 patients. In addition, in assay [2], the “patients with more than a 20% increase in SMRP level” value was 12 of the 27 patients.

For `Nc1nc2[nH]cc(CCc3ccc(C(=O)N[C@@H](CCC(=O)O)C(=O)O)cc3)c2c(=O)[nH]1` [pem, pemetrexed], the “2 yr OS” value in the assay with MPM [3] is 30%). Also, in the assay with MPM [4], the “Median OS, Average” value was determined as 11.7 mo; the “Response rate, Average” value was 18%; the “TTP/PFS, Average” value is listed as 5.1 mo.

The values above are taken from patent US20210106674A1, “Gene Therapy For Mesothelioma” (The Trustees of the University of Pennsylvania, priority 2019, published 2021).
